Where two headings read alike, the source gives them in different places.
What was measured:
[1] = cited from earlier work
[2] = AEGR-733/ezetimibe combination therapy patient study: percentage change in body mass; format: in vivo, human
From the text: The primary parameter of efficacy in this study is the percentage change in body mass after 12 weeks of therapy.
Approximately 85 subjects were randomized into one of three treatment arms with equal probability. […] Enrolled patients had initial BMIs of both greater than and less than 30 kg/m^2. Patients were not instructed to implement lifestyle changes to induce weight loss. Patients were placed on a heart healthy low fat diet 4-5 weeks prior to start of dosing.
In treatment arm 1, subjects received two capsules: AEGR-733 (5 mg) plus an ezetimibe placebo. In effect, treatment arm 1 represents monotherapy with AEGR-733. In treatment arm 2, subjects received two capsules: an AEGR-733 placebo plus ezetimibe (10 mg). In effect treatment arm 2 represents monotherapy with ezetimibe. In treatment arm 3, subjects received two capsules: an AEGR-733 (5 mg) capsule plus an ezetimibe (10 mg) capsule. Treatment arm 3 patients, in effect, received a combination therapy.
After 4 weeks of treatment, subjects in arms 1 and 3 received a step-up in concentration of AEGR-733 from 5 mg to 7.5 mg for 4 weeks. Thereafter, subjects in arms 1 and 3 received a second step-up in concentration in AEGR-733 from 7.5 mg to 10 mg for 4 more additional weeks of treatment. Subjects in arm 2 continued to receive AEGR-733 matching placebo for the entire 12 weeks of treatment. Subjects randomized to ezetimibe 10 mg in arms 2 and 3 and ezetimibe placebo in arm 1 remained on these doses for the entire 12-week treatment period.
Throughout the study, changes in body weight of the subjects are measured as part of vital signs collection.
FIG. 3 depicts the same data only for those patients with a BMI of greater than 30 kg/m^2. FIG. 4 depicts the same data only for those patients with a BMI of less than or equal to 30 kg/m^2.

[3] = entire cohort, after 12 weeks of daily administration (FIG. 1), AEGR-733 5 then 7.5 then 10 mg, ezetimibe 10 mg
[4] = patients with initial BMI greater than 30 kg/m^2 (FIG. 3), after 12 weeks
[5] = patients with initial BMI less than 30 kg/m^2 (FIG. 4), after 12 weeks

| Structure (SMILES) | adverse events ([1]; 80 mg/day) | adverse events ([1]; 160 mg/day) | percent change in body mass [2, 3] [%] | percent change in body mass [2, 4] [%] | percent change in body mass [2, 5] | adverse events ([1]; 25 mg/day) |
| --- | --- | --- | --- | --- | --- | --- |
| Cc1cc(C)c2c3ccccc3n(Cc3ccc(C(C(=O)NC(CO)c4ccccc4)C4CCCC4)cc3)c2n1 [implitapide, (2S)-2-cyclopentyl-2-[4-[2,4-dimethyl-9H-pyrido[2,3-b]indol-9-yl)methyl]phenyl]-N-[(1S)-2-hydroxy-1-phenylethyl]ethanamide] | found to cause gastrointestinal disorders, abnormalities in liver function and/or hepatic steatosis | found to cause gastrointestinal disorders, abnormalities in liver function and/or hepatic steatosis | – | – | – | – |
| O=C1[C@H](CC[C@H](O)c2ccc(F)cc2)[C@@H](c2ccc(O)cc2)N1c1ccc(F)cc1 [ezetimibe] | – | – | −0.2 | −1.0 | +0.4% | – |
| O=C(NC1CCN(CCCCC2(C(=O)NCC(F)(F)F)c3ccccc3-c3ccccc32)CC1)c1ccccc1-c1ccc(C(F)(F)F)cc1 [AEGR-733, N-(2,2,2-Trifluorethyl)-9-[4-[4-[[[4′-(trifluoromethyl)[1,1′biphenyl]-2-Y1]carbonyl]amino]-1-piperidinyl]butyl]9H-fluorene-9-carboxamide] | – | – | −1.0 | −0.4 | −1.4% | found to cause gastrointestinal disorders, abnormalities in liver function and/or hepatic steatosis |

From patent US20120071458A1, “METHODS FOR TREATING OBESITY” (priority 2006, published 2012)
